From ChEMBL document CHEMBL1201862, “PubChem BioAssay data set” (2004)
The source made the active and inactive calls.

Tests used:
[1] = biological target: T1, Ubiquitin-conjugating enzyme E2 N (Homo sapiens, UniProt P61088); format: functional;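 note: Dose-response confirmation in a TR-FRET assay detecting UBC13-driven polyubiquitin chain formation, inhibition measured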
T1 sequence (P61088 whole entry): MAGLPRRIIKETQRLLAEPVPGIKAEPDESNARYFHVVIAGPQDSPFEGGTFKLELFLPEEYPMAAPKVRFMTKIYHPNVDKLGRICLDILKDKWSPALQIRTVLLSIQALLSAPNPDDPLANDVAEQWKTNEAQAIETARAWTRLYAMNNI

[2] = biological target: Delta-type opioid receptor (Homo sapiens, UniProt P41143); experiment: Counterscreen for agonists of heterodimerization of the mu 1 (OPRM1) and delta 1 (OPRD1) opioid receptors: Luminescence-based cell-based high throughput dose response assay to identify agonists of OPRD1 homodimerization. [Related pubchem assays (depositor defined):AID504326, AID504355, AID504692, AID504904, AID504905]; format: functional
[3] = biological target: Mu-type opioid receptor (Homo sapiens, UniProt P35372); experiment: Counterscreen for agonists of heterodimerization of the mu 1 (OPRM1) and delta 1 (OPRD1) opioid receptors: Luminescence-based cell-based high throughput dose response assay to identify agonists of OPRM1 homodimerization.; format: functional;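 note: U2OS cells expressing OPRM1 and beta-arrestin as split beta-galactosidase partners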
[4] = biological target: 5-hydroxytryptamine receptor 5A (Homo sapiens, UniProt P47898); experiment: Counterscreen for agonists of OPRM1-OPRD1 heterodimerization: luminescence-based cell-based high throughput dose response assay to identify agonists of 5-hydroxytryptamine (serotonin) 5A receptor (HTR5A). [Related pubchem assays (depositor defined):AID504326, AID504355, AID504692, AID504904, AID504905]; format: functional
[5] = system: INS1; experiment: INS-1E survival protection against cytokine death – cell-based, luminescence, retest, dose response (AID 449756); format: functional; conditions: Rattus norvegicus;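 note: cell death triggered by IL-1 beta plus TNF-alpha plus IFN-gamma mixture; protective hits raise ATP signal compared with cytokine alone wells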
[6] = biological target: Paired box protein Pax-8 (Homo sapiens, UniProt Q06710); experiment: PAX8 transcriptional activity inhibition in RMG-I – RMG-I cells, luciferase, cherry-pick, dose response (AID 687027); format: functional, cell-based;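 note: luciferase reporter driven by Pax8 target thyroperoxidase promoter measured by SteadyGlo luminescence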
[7] = general cell-killing toxicity readout – plate reader, dry powder samples, cytotoxicity control for PAX8 inhibitor project, dose response (AID 743021); format: functional, cell-based
[8] = biological target: T2, Replicative DNA helicase DnaB (Mycobacterium tuberculosis, UniProt P9WMR3); experiment: DnaB intein splicing inhibitors, dose response, biochemical, cell-free fluorescence (AID 449749); format: functional
T2 sequence (P9WMR3 whole entry): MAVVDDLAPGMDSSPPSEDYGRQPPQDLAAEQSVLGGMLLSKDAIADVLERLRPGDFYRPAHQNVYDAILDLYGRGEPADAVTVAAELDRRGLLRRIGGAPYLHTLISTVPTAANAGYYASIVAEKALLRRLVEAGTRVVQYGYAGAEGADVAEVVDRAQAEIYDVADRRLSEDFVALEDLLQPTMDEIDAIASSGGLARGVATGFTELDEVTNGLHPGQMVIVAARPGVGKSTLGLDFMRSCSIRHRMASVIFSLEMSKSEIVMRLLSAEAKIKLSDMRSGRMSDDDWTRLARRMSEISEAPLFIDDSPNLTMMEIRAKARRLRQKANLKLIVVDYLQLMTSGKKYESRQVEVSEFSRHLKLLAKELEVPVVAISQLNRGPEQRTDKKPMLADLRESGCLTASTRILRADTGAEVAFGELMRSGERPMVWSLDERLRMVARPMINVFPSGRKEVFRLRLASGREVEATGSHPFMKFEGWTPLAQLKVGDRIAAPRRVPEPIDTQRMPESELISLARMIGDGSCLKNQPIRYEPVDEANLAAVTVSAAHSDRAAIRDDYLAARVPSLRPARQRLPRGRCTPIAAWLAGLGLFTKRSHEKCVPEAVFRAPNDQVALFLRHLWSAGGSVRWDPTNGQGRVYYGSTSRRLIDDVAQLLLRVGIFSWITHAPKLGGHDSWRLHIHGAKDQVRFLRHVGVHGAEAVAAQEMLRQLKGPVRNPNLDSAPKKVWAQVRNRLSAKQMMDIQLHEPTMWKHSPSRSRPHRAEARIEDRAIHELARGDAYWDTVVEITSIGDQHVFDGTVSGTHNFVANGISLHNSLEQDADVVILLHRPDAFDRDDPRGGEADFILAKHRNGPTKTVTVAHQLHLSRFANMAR

[9] = biological target: T3, Protein RecA (Mycobacterium tuberculosis, UniProt P9WHJ3); experiment: Fluorescence Cell-Free Homogeneous Dose Retest to Identify Inhibitors of RecA-Intein Splicing Activity. [Related pubchem assays (depositor defined):AID2097, AID2223, AID489010, AID492950]; format: functional
T3 sequence (P9WHJ3 whole entry): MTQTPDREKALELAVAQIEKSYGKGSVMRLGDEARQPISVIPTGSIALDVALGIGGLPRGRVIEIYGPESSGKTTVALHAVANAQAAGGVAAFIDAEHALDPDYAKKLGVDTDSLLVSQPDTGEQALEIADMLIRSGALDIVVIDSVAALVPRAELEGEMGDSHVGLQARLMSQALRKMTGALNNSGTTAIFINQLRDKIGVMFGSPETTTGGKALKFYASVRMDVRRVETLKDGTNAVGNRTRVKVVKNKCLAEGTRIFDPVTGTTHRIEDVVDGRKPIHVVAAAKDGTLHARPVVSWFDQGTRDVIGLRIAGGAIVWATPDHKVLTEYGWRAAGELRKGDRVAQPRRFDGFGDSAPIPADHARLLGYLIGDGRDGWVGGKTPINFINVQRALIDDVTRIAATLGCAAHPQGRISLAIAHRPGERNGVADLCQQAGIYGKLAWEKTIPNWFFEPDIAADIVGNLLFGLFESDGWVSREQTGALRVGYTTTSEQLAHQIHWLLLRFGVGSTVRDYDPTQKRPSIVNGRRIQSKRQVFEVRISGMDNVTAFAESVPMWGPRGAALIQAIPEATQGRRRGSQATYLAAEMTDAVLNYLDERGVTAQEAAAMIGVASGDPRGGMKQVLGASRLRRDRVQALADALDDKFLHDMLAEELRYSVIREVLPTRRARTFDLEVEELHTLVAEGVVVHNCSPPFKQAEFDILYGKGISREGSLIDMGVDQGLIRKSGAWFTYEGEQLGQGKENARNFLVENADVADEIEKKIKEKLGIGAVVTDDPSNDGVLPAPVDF

[10] = biological target: fMet-Leu-Phe receptor (Homo sapiens, UniProt P21462); experiment: formyl peptide receptor binders – dose response (AID 519); format: functional
[11] = system: H9c2; experiment: cells; format: functional, cell-based; conditions: Rattus norvegicus, H9c2, Myocardium;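 note: confirmatory concentration-response retest of ultra-high-throughput screening hits for modulation of myocardial damage; cell death induced by hydrogen peroxide oxidative stress; compound pretreatment for 60 min then peroxide exposure for 2 h; potency is for protecting the cells against peroxide damage rather than for killing them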
[12] = system: HeLa; experiment: viability loss in HeLa cells – cell-based, ATP luminescence, cherry-pick samples, cytotoxicity control, dose response (AID 687004); format: functional; conditions: Homo sapiens
[13] = A549 cell cytotoxicity, dose response, cytotoxicity control, plate reader, cherry-pick, antagonist series (AID 743412); format: functional, cell-based
[14] = toxicity toward HepG2 liver cells – cell-based, plate reader, cherry-pick, antagonist series, cytotoxicity control, dose response (AID 743416); format: functional
[15] = blockers of bursicon-stimulated LGR2 cAMP reporter – cell-based, HEK293, CRE-luciferase reporter, cherry pick, set 2, dose response (AID 743343); format: functional;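 note: transfected cells were stimulated with diluted bursicon conditioned medium after compound addition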
[16] = blockade of melanocortin 4 receptor signaling – cell-based, plate reader, cherry pick, counter-screen for LGR2 antagonist project, dose response (AID 743444); format: functional;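 note: transfected HEK 293 cells stimulated with alpha-MSH peptide; potency of inhibitors of the alpha-MSH evoked signal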
[17] = viability loss in HEK293 cells – cell-based, plate reader, cherry-picked samples, cytotoxicity control, dose response (AID 743446); format: functional
[18] = CMV-driven luciferase expression suppression in HEK293 – cell-based, luminescence, dry powder, counter-screen for Pax8 inhibitor project, dose response (AID 743020); format: functional
[19] = system: Streptococcus sp. 'group A'; experiment: Streptococcus pyogenes SK(-)GAS viability under kanamycin – luminescence, BacTiterGlo, confirmation, counter-screen for streptokinase expression inhibitor project, dose response (AID 1900); format: functional, organism-based
[20] = Trypanosoma cruzi growth suppression in host cells – NIH3T3 host cells, beta-gal luminescence, confirmation (AID 2044); format: functional, cell-based;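 note: intracellular parasites grown in NIH/3T3 mouse fibroblasts as host cells; luminescent beta-galactosidase reporter signal from transgenic T. cruzi replicating inside host cells; inhibitors lower the luminescence signal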
[21] = NIH3T3 cell viability loss – ATP luminescence, mouse fibroblasts, counter-screen, dose response (AID 2010); format: functional, cell-based;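 note: cells exposed to compound for about 90 hours before reading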
[22] = system: Streptococcus; experiment: GAS UMAA2166 growth inhibition – luminescence, BacTiterGlo, counter-screen for streptokinase expression inhibitor project, dose response (AID 1915); format: functional, organism-based;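 note: potency for reduction of bacterial viability or growth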
[23] = biological target: Heat shock protein HSP 90-alpha (Homo sapiens, UniProt P07900); format: functional, organism-based
[24] = biological target: T4, Apoptotic protease-activating factor 1 (Homo sapiens, UniProt O14727); format: functional
T4 sequence (O14727 whole entry): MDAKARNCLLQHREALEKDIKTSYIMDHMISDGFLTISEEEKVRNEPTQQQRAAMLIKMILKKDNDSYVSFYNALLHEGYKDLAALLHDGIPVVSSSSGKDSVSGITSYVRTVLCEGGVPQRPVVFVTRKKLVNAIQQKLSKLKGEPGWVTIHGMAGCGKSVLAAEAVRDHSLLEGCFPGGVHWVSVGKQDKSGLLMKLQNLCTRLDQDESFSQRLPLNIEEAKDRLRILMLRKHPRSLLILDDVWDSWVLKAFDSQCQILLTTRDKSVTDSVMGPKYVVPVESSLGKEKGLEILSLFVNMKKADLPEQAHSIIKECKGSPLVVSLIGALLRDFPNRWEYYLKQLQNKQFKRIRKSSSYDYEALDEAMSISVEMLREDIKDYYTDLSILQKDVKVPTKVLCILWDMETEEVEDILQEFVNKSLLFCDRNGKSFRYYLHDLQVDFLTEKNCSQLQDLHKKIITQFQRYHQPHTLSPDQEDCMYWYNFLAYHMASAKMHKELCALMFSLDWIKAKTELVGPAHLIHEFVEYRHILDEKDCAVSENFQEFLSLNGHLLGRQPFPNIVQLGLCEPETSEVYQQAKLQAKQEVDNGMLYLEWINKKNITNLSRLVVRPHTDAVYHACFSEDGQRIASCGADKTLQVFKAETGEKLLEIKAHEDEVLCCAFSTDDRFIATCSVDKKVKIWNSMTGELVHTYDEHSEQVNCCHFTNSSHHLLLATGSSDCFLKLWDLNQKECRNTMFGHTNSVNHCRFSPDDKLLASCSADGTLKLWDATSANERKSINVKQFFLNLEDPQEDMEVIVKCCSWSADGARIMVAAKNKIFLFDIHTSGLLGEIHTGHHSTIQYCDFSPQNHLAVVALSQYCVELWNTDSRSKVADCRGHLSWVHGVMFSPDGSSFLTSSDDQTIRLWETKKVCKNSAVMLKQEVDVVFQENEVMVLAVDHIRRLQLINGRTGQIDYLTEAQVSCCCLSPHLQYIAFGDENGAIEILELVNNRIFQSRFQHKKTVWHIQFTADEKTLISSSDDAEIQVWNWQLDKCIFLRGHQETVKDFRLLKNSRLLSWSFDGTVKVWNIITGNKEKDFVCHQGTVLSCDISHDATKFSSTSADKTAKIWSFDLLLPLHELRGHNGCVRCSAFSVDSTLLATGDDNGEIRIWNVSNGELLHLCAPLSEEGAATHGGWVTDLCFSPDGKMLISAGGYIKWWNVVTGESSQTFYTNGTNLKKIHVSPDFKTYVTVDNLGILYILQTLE

[25] = biological target: Melanocortin receptor 4 (Homo sapiens, UniProt P32245); format: functional, cell-based;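 note: Cell-based assay with luminescence read-out, confirmatory dose-response testing for agonist activity of biased ligands at MC4R; human U2OS cells with tagged receptor and beta-arrestin; potency of agonists that increase receptor coupling to beta-arrestin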
[26] = biological target: DNA repair protein RAD52 homolog (Homo sapiens, UniProt P43351); format: functional, biochemical
[27] = reduction of Shn3 3'UTR-driven luciferase in osteoblasts – cell-based, Clone20 osteoblasts, firefly luciferase, cherry-picked, dose response (AID 624132); format: functional;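 note: firefly luciferase luminescence from reporter carrying the Shn3 3'UTR in osteoblasts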
[28] = loss of viability in HepG2 cells – cell-based, CellTiter-Glo, cherry-picked, cytotoxicity control for Shn3 inhibitor project, dose response (AID 624134); format: functional
[29] = non-specific 3'UTR reporter inhibition in Clone20-Shn3RL – cell-based, Renilla luciferase, cherry-picked, counter-screen for Shn3 inhibitor project, dose response (AID 624133); format: functional
[30] = Shn3 3'UTR reporter signal decrease – cell-based, Clone20 osteoblasts, firefly luciferase, cherry-pick, set 2, Schnurri-3 inhibitor project, dose response (AID 720490); format: functional;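 note: actives lower the luminescence signal as inhibitors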

fMet-Leu-Phe receptor, sequence (P21462 whole entry): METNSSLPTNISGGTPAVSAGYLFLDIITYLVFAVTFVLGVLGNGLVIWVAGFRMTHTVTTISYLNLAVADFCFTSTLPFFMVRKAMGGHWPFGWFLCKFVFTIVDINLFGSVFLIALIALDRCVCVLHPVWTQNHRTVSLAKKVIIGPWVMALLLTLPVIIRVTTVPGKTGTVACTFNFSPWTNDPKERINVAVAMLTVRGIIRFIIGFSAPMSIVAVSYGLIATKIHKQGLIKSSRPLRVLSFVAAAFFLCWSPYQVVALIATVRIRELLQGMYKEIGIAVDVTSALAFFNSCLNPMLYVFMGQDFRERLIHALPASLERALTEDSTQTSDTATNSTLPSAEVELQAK
Paired box protein Pax-8, sequence (Q06710 whole entry): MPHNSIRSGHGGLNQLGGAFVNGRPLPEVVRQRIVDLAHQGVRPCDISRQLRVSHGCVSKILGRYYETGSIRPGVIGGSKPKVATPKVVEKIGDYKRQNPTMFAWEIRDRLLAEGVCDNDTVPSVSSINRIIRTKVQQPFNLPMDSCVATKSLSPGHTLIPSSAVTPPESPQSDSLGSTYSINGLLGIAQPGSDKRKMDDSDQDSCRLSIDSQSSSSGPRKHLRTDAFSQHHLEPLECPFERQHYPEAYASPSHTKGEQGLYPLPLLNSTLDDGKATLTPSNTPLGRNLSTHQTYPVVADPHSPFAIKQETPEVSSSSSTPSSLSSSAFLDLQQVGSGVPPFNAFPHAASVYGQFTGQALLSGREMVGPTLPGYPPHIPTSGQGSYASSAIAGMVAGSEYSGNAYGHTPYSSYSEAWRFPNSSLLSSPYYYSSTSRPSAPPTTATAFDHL
Delta-type opioid receptor, sequence (P41143 whole entry): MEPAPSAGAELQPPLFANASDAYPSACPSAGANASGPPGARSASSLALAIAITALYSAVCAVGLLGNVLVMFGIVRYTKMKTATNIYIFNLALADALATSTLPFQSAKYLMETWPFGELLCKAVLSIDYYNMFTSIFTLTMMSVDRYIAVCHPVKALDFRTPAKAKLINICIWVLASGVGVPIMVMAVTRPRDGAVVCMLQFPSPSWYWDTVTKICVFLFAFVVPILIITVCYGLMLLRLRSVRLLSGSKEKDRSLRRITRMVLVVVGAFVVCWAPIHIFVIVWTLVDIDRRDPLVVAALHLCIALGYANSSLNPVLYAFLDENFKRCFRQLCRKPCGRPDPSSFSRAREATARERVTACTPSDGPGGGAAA
DNA repair protein RAD52 homolog, sequence (P43351 whole entry): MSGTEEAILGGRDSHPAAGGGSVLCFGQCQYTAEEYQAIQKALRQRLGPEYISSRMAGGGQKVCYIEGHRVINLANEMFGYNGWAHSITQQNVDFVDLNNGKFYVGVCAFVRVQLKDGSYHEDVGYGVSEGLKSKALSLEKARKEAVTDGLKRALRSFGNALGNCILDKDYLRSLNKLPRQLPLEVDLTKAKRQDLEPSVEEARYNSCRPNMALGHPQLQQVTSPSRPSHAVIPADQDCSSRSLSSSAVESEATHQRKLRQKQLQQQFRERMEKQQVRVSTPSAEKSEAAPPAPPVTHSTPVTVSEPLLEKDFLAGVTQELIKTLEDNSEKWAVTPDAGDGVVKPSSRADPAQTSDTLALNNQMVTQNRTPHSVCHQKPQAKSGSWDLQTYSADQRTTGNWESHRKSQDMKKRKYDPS
5-hydroxytryptamine receptor 5A, sequence (P47898 whole entry): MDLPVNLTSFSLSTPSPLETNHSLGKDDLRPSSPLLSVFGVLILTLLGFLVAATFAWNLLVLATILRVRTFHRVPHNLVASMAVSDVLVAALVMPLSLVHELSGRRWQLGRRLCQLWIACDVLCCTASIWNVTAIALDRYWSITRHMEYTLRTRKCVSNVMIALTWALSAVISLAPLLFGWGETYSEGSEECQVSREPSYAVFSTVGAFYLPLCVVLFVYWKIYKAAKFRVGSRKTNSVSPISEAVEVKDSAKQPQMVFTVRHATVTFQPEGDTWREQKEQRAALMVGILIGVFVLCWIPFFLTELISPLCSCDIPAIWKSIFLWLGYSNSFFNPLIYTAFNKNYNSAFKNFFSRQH
Melanocortin receptor 4, sequence (P32245 whole entry): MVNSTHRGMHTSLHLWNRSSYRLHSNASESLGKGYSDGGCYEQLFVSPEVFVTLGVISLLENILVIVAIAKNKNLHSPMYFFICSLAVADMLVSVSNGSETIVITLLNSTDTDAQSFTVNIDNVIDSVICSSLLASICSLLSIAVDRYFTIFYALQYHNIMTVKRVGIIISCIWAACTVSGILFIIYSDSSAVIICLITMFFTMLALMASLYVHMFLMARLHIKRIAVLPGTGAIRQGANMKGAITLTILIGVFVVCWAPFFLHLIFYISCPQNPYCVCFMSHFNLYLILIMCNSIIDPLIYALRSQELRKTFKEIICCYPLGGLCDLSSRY
Mu-type opioid receptor, sequence (P35372 whole entry): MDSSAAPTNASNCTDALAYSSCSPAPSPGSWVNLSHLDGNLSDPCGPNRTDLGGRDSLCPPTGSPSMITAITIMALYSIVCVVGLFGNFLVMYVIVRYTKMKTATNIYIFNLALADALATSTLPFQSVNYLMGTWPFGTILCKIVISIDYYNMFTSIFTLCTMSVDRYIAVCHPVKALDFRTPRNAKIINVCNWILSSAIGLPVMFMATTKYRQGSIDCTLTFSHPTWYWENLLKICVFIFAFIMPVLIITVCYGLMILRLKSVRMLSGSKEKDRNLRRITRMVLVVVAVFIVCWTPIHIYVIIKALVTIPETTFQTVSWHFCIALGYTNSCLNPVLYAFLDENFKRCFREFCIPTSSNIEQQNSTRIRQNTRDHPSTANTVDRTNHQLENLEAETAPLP

Compound: CCN1CCN(Cc2ccc(NC(=O)c3ccc(C)c(NC(=O)c4cnc5cc(C(F)(F)F)ccc5c4O)c3)cc2C(F)(F)F)CC1
- IC50 [1]: > 20 µM (inactive)
- EC50 [2]: 11.2 µM (inactive)
- EC50 [3]: > 92.5 µM (inactive)
- EC50 [4]: > 92.5 µM (inactive)
- AC50 [5]: 4.42 µM (active)
- AC50 [6]: 10.6 µM (active)
- AC50 [7]: 26.2 µM (active)

Compound: COc1cc(-n2nc(C)c3c2OC(N)=C(C#N)C3c2ccccc2)c(Cl)c(Br)c1O (stereo not drawn)
- AC50 [8]: 15.6 µM (active)
- EC50 [9]: 3.47 µM (active)
- Ki [10]: 32.5 µM (inactive)

Compound: CC1(C)S[C@@H]2[C@H](NC(=O)Cc3ccccc3)C(=O)N2[C@H]1C(=O)O [PENICILLIN G POTASSIUM]
- Ki [10]: 7.8 µM (active)

Compound: CS(=O)(=O)c1ccc(-c2cnc3c(NC=O)cc(-c4ccsc4)cn23)cc1
- IC50 [11]: 4.99 µM (active)
- AC50 [12]: > 52 µM (inactive)

Compound: Oc1nc2ccccc2n1C1CCN(C(c2cc3ccccc3o2)c2nnnn2-c2ccc3c(c2)OCCO3)CC1 (stereo not drawn)
- AC50 [6]: 5.8 µM (active)
- AC50 [13]: 12.6 µM (active)
- AC50 [14]: 39.1 µM (active)
- AC50 [15]: 11.6 µM (active)
- AC50 [7]: 24.3 µM (active)
- AC50 [16]: 8.87 µM (active)
- AC50 [17]: 15.5 µM (active)

Compound: CCCCC(=O)N1CCN(c2ccc(OC)cc2[N+](=O)[O-])CC1
- AC50 [18]: < 21.5 µM (active)

Compound: CCCCCCCCCCOC(=O)C[n+]1c(COc2cccc(C)c2)n(C)c2ccccc21
- EC50 [19]: 4.16 µM (active)
- EC50 [20]: 1 µM (active)
- EC50 [21]: > 60 µM (not active)
- EC50 [22]: 7.73 µM (active)
- IC50 [1]: > 20 µM (inactive)
- AC50 [8]: 3.19 µM (active)
- AC50 [23]: 32.5 µM (active)
- IC50 [24]: 15.9 µM (active)
- EC50 [9]: 9.88 µM (active)
- AC50 [5]: 3.87 µM (active)
- EC50 [25]: > 89.2 µM (inactive)
- AC50 [26]: 11.9 µM (active)

Compound: Cc1ccc(NC(=O)c2cc(S(=O)(=O)NCCC3=CCCCC3)ccc2F)cc1F
- AC50 [5]: 3.03 µM (active)
- AC50 [27]: 4.13 µM (active)
- AC50 [28]: 41.5 µM (active)
- AC50 [29]: 46.1 µM (active)
- AC50 [30]: 3.83 µM (active)
